How the values were obtained:
Type in all cases: cell-based
alpha2C receptor = biological target: T1, alpha2C receptor (Homo sapiens, UniProt P18825); experiment: Receptor Selection and Amplification Technology (RSAT) assay, alpha2C; conditions: for EC50 / Alpha 2C EC50: RSAT, NIH-3T3 cells cotransfected with receptor and Gq/i5, not active = not active at concentrations less than 10 micromolar; for EC50: read-out: Alpha 2C EC50; for Alpha 2C IA (intrinsic activity): ratio of maximal effect of the drug to maximal effect of standard full agonist brimonidine (UK14304)
T1 construct: expressed in transfected cells; host or cells: NIH-3T3
T1 sequence (P18825 1-462): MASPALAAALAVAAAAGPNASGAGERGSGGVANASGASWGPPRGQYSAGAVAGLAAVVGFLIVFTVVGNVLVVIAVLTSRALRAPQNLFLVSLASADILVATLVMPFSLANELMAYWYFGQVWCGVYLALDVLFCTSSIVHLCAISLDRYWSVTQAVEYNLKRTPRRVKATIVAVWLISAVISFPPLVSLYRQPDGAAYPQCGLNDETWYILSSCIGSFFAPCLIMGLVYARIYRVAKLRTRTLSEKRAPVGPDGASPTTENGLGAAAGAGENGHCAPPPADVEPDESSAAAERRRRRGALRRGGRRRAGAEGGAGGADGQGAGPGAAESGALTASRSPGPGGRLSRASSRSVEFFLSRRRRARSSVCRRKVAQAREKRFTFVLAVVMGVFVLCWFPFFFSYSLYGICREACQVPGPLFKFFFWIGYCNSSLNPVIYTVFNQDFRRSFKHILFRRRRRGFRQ
Description: (§1) Receptor Selection and Amplification Technology (RSAT) Assay
(§2) The RSAT assay measures a receptor-mediated loss of contact inhibition that results in selective proliferation of receptor-containing cells in a mixed population of confluent cells. The increase in cell number is assessed with an appropriate transfected marker gene such as β-galactosidase, the activity of which can be easily measured in a 96-well format. Receptors that activate the G protein, Gq, elicit this response. Alpha2 receptors, which normally couple to Gi, activate the RSAT response when coexpressed with a hybrid Gq protein that has a Gi receptor recognition domain, called Gq/i5.
(§3) NIH-3T3 cells are plated at a density of 2×10^6 cells in 15 cm dishes and maintained in Dulbecco's modified Eagle's medium supplemented with 10% calf serum. One day later, cells are cotransfected by calcium phosphate precipitation with mammalian expression plasmids encoding p-SV-β-galactosidase (5-10 μg), receptor (1-2 μg) and G protein (1-2 μg). 40 μg salmon sperm DNA may also be included in the transfection mixture. Fresh media is added on the following day and 1-2 days later, cells are harvested and frozen in 50 assay aliquots. Cells are thawed and 100 μl added to 100 μl aliquots of various concentrations of drugs in triplicate in 96-well dishes. Incubations continue 72-96 hr at 37° C. After washing with phosphate-buffered saline, β-galactosidase enzyme activity is determined by adding 200 μl of the chromogenic substrate (consisting of 3.5 mM o-nitrophenyl-β-D-galactopyranoside and 0.5% nonidet P-40 in phosphate buffered saline), incubating overnight at 30° C. and measuring optical density at 420 nm. The absorbance is a measure of enzyme activity, which depends on cell number and reflects a receptor-mediated cell proliferation. The efficacy or intrinsic activity is calculated as a ratio of the maximal effect of the drug to the maximal effect of a standard full agonist for each receptor subtype. Brimonidine, also called UK14304, the chemical structure of which is shown below, is used as the standard agonist for the alpha2A, alpha2B and alpha2C receptors. The EC50 is the concentration at which the drug effect is half of its maximal effect.
(§4) EC50 values are nanomolar. NA stands for “not active” at concentrations less than 10 micromolar. IA stands for “intrinsic activity.”

alpha2B receptor = biological target: T2, alpha2B receptor (Homo sapiens, UniProt P18089); experiment: Receptor Selection and Amplification Technology (RSAT) assay, alpha2B; conditions: for EC50: RSAT, NIH-3T3 cells cotransfected with receptor and Gq/i5, not active = not active at concentrations less than 10 micromolar, read-out: Alpha 2B EC50; for Alpha 2B IA (intrinsic activity): ratio of maximal effect of the drug to maximal effect of standard full agonist brimonidine (UK14304)
T2 construct: expressed in transfected cells; host or cells: NIH-3T3
T2 sequence (P18089 1-450): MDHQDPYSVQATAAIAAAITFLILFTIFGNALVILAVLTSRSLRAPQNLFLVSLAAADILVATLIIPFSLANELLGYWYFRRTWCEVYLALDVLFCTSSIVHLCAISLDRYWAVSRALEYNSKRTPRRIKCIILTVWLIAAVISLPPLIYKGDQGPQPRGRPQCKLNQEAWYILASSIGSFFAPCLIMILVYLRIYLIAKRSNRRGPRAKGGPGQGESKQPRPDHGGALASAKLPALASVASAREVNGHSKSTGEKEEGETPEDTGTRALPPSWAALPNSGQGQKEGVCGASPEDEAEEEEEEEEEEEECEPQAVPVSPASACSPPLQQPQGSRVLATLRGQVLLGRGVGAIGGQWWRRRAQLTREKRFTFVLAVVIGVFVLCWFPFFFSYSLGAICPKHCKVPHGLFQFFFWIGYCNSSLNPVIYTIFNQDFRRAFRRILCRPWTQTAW
Description: as §1, §2, §3
The results of the RSAT assay with several exemplary compounds of the invention are disclosed in Table 1 above together with the chemical formulas of these exemplary compounds. EC50 values are nanomolar. NA stands for “not active” at concentrations less than 10 micromolar. IA stands for “intrinsic activity.”

alpha2A receptor = biological target: T3, alpha2A receptor (Homo sapiens, UniProt P08913); experiment: Receptor Selection and Amplification Technology (RSAT) assay, alpha2A; conditions: for Alpha 2A EC50 / EC50: RSAT, NIH-3T3 cells cotransfected with receptor and Gq/i5, not active = not active at concentrations less than 10 micromolar; for EC50: read-out: Alpha 2A EC50; for Alpha 2A IA (intrinsic activity): ratio of maximal effect of the drug to maximal effect of standard full agonist brimonidine (UK14304)
T3 construct: expressed in transfected cells; host or cells: NIH-3T3
T3 sequence (P08913 1-465): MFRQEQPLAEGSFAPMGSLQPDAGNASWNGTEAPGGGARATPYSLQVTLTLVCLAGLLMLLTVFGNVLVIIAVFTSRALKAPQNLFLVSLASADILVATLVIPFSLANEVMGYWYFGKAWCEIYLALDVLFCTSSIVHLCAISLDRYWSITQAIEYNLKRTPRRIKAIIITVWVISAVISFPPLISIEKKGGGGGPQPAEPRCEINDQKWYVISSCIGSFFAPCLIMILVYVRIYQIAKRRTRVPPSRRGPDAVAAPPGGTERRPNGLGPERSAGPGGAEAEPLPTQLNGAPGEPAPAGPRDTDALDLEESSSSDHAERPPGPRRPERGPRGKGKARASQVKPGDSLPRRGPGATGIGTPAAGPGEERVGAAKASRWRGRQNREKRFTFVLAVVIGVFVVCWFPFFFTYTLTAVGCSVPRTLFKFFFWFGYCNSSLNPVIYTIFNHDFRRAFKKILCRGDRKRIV
Description: as §1, §2, §3, §4

Compound	EC50 (alpha2C receptor) [nM]	Alpha 2C IA (intrinsic activity) (alpha2C receptor)	EC50 (alpha2B receptor) [nM]	Alpha 2B IA (intrinsic activity) (alpha2B receptor)	Alpha 2A EC50 (alpha2A receptor)	Alpha 2C EC50 (alpha2C receptor)	EC50 (alpha2A receptor) [nM]	Alpha 2A IA (intrinsic activity) (alpha2A receptor)
O=C(NCCF)NC1C=C(CO)CCC1 (centres unmarked)	2600	0.4	1260	0.58	not active			
CC1=CCCCC1NC(=O)NCCF (centres unmarked)	453	0.58	74	0.9	not active			
COc1cccc2c1CC(NC(=O)NCCF)C2 (centres unmarked)	41	0.63	7.5	1.57	not active			
Cc1c(Cl)ccc2c1C(NC(=O)NCCF)CC2 (centres unmarked)			85	0.6	not active	not active		
CC1=CC(NC(=O)NCCF)CC1 (centres unmarked)	911	0.47	1160	0.61	not active			
O=C(NCCF)NC1CCc2ccccc2C1 (centres unmarked)			226	0.63	not active	not active		
CC1=C(C)C(NC(=O)NCCF)CC1 (centres unmarked)	214	0.64	37	1.07			586	0.36
CC1=C(C=O)CCCC1NC(=O)NCCF (centres unmarked)	3620	0.32	2580	0.81	not active			
CC1=CC(NC(=O)NCCF)CCC1 (centres unmarked)	520	0.4	225	0.42	not active			
CCC1=C(C)C(NC(=O)NCCF)CC1 (centres unmarked)	886	0.37	319	0.88	not active			

Other lines, results leading:

EC50 (alpha2C receptor) [nM]	Alpha 2C IA (intrinsic activity) (alpha2C receptor)	EC50 (alpha2B receptor) [nM]	Alpha 2B IA (intrinsic activity) (alpha2B receptor)	Alpha 2A EC50 (alpha2A receptor)	Alpha 2C EC50 (alpha2C receptor)	EC50 (alpha2A receptor) [nM]	Alpha 2A IA (intrinsic activity) (alpha2A receptor)	Compound
60	0.47	20	0.54	not active				O=C(NCCF)NC1CCc2ccc(F)cc21 (centres unmarked)
		238	0.37	not active	not active			Cc1c(Br)ccc2c1C(NC(=O)NCCF)CC2 (centres unmarked)
220	0.45	302	0.52	not active				O=C(NCCF)NC1CCc2ccc(Br)cc21 (centres unmarked)
1820	0.61	565	0.55			693	0.36	O=C(NCCF)N[C@@H]1CCc2ccccc21
40	0.52	9.6	0.86	not active				O=C(NCCF)NC1CCCc2sccc21 (centres unmarked)
204	0.53	20.3	0.91			146	0.41	O=C(NCCF)NC1CCCc2c(Br)cccc21 (centres unmarked)
807	0.31	32	0.88	not active				Cc1ccc2c(c1)C(NC(=O)NCCF)CC2 (centres unmarked)
86	0.7	12	0.99			343	0.63	O=C(NCCF)NC1CCc2ccc(Cl)cc21 (centres unmarked)
453	0.44	90	0.81	not active				O=C(NCCF)NC1CCCc2occc21 (centres unmarked)
513	0.52	19.7	0.76	not active				CC1=C(C)C(NC(=O)NCCF)CCC1 (centres unmarked)
